Assay results: US9296704B2, “Substituted pyrimidines as protein kinase inhibitors” (CELGENE AVILOMICS RESEARCH, INC., priority 2007, dated 2016)

What was measured:
EGFR (WT) = target: T1, EGFR (WT) (Homo sapiens, UniProt P00533); assay: Omnia continuous-read kinase assay, EGFR (WT); assay type: biochemical; conditions: read-out: EGFR inhibtion
T1 construct: purchased Invitrogen PV3872
Method in brief: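 Enzyme pre-incubated 30 min at 27 °C with compound, then ATP/Y12-Sox peptide added; fluorescence (ex360/em485) read continuously 60 min in 20 mM Tris pH 7.5, 5 mM MgCl2, 0.2 mM DTT. WT: 5 nM enzyme, […]; T790M/L858R: 3 nM enzyme, […]. IC50 from initial velocities, variable-slope fit.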

ITK = target: T2, ITK (Homo sapiens, UniProt Q08881); assay: Omnia assay for potency against ITK; assay type: biochemical; conditions: read-out: ITK inhibition
T2 sequence (Q08881 1-620): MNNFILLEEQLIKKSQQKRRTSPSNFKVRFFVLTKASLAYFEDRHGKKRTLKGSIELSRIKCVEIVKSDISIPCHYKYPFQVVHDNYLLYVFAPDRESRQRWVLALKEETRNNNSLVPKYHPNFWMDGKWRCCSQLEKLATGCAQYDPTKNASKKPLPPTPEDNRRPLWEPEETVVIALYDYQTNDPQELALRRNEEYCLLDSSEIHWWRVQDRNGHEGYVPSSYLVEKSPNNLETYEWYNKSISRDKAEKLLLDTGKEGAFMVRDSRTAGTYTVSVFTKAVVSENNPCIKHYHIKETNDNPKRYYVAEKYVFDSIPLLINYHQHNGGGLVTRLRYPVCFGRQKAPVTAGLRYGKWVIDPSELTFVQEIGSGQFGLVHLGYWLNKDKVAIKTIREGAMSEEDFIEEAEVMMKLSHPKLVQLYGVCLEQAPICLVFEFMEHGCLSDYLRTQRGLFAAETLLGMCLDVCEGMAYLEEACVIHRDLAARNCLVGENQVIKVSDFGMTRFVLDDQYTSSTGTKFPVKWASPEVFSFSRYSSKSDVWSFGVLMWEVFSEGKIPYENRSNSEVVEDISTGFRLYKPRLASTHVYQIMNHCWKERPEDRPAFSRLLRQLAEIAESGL
Text: The protocol below describes continuous-read kinase assays to measure inherent potency of compounds against active forms of EGFR (WT) and EGFR (T790M/L858R) enzymes. The mechanics of the assay platform are best described by the vendor (Invitrogen, Carlsbad, Calif.) on their website at the following URL: http://www.invitrogen.com/content.cfm?pageid=11338 or http://www.invitrogen.com/site/us/en/home/Products-and-Services/Applications/Drug-Discovery/Target-and-Lead-Identification-and-Validation/KinaseBiology/KB-Misc/Biochemical-Assays/Omnia-Kinase-Assays.html.
Briefly, 10× stocks of EGFR-WT (PV3872) from Invitrogen and EGFR-T790M/L858R (40350) from BPS Bioscience, San Diego, Calif., 1.13×ATP (AS001A) and appropriate Tyr-Sox conjugated peptide substrates (KCZI001) were prepared in 1× kinase reaction buffer consisting of 20 mM Tris, pH 7.5, 5 mM MgCl2, 1 mM EGTA, 5 mM β-glycerophosphate, 5% glycerol (10× stock, KB002A) and 0.2 mM DTT (DS001A). 5 μL of each enzyme were pre-incubated in a Corning (#3574) 384-well, white, non-binding surface microtiter plate (Corning, NY) for 30 min. at 27° C. with a 0.5 μL volume of 50% DMSO and serially diluted compounds prepared in 50% DMSO. Kinase reactions were started with the addition of 45 μL of the ATP/Tyr-Sox peptide substrate mix and monitored every 30-90 seconds for 60 minutes at λex360/λem485 in a Synergy^4 plate reader from BioTek (Winooski, Vt.). At the conclusion of each assay, progress curves from each well were examined for linear reaction kinetics and fit statistics (R^2, 95% confidence interval, absolute sum of squares). Initial velocity (0 minutes to ˜30 minutes) from each reaction was determined from the slope of a plot of relative fluorescence units vs time (minutes) and then plotted against inhibitor concentration to estimate IC50 from log [Inhibitor] vs Response, Variable Slope model in GraphPad Prism from GraphPad Software (San Diego, Calif.).
This example describes continuous-read kinase assays to measure inherent potency of compound against active forms of ITK enzymes as described in Example 10 above except that the modified ITK-optimized reagent conditions are: • [ITK]=10 nM, [ATP]=25 μM, [Y6-Sox]=10 μM (ATP KMapp=33 μM).

T1 sequence (P00533 25-1210): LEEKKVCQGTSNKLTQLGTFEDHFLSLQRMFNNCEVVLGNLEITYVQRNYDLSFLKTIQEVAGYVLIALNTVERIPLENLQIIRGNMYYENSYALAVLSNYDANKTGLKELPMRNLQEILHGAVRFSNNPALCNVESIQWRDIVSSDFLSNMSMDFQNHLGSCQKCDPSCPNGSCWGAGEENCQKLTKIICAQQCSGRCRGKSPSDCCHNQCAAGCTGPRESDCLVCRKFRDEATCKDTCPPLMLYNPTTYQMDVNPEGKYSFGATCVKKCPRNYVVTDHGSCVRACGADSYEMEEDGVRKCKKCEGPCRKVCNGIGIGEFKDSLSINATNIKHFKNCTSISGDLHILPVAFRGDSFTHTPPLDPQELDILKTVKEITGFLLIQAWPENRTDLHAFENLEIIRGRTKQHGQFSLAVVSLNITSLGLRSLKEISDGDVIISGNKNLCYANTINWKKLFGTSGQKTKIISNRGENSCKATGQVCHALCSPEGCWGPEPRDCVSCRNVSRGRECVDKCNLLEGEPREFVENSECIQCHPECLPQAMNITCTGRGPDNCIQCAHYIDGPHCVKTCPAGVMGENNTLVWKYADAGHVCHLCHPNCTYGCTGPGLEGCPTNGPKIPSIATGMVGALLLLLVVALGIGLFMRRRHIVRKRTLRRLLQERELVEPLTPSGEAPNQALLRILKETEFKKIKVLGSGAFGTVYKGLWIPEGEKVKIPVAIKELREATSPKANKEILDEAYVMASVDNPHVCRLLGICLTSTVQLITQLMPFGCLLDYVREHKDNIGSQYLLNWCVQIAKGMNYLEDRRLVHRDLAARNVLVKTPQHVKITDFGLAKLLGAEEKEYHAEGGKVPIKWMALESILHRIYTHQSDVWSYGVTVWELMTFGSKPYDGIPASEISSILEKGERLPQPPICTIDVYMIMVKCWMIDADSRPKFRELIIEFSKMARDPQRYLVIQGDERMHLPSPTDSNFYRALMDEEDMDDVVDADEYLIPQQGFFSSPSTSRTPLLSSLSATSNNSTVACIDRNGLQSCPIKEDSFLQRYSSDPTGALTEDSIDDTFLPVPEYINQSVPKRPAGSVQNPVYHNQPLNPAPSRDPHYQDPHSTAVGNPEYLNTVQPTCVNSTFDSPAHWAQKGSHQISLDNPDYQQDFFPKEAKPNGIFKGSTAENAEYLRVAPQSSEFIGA

| Compound | IC50 (EGFR (WT)) | IC50 (ITK) |
| --- | --- | --- |
| C=CC(=O)Nc1cccc(Nc2cc(Nc3ccc(Oc4ccccc4)cc3)ncn2)c1 [I-13, N-{3-[6-(4-phenoxyphenylamino)-pyrimidin-4-ylamino]phenyl}-2 propenamide] | ≤ 10 nM | 1000 to 10000 nM |
| CN(C)C/C=C/C(=O)Nc1cccc(Nc2cc(Nc3ccc(Oc4ccccc4)cc3)ncn2)n1 [I-64, (E)-4-(dimethylamino)-N-(6-(6-(4-phenoxyphenylamino)pyrimidin-4-ylamino)pyridine-2-yl)but-2-enamide] | – | 10 to 100 nM |
| C=CC(=O)Nc1cccc(Nc2cc(Oc3ccc(Oc4ccccc4)cc3)ncn2)n1 [I-66] | ≤ 10 nM | 1000 to 10000 nM |
| C=CC(=O)N(C)c1cccc(Nc2cc(Nc3ccc(Oc4ccccc4)cc3)ncn2)n1 [I-78, N-methyl-N-(6-(6-(4-phenoxyphenylamino)pyrimidin-4-ylamino)pyridin-2-yl)acrylamide] | ≤ 10 nM | 10 to 100 nM |
| CN(C)C/C=C/C(=O)N(C)c1cccc(Nc2cc(Nc3ccc(Oc4ccccc4)cc3)ncn2)n1 [I-79, (E)-4-(dimethylamino)-N-methyl-N-(6-(6-(4-phenoxyphenylamino)pyrimidin-4-ylamino)pyridine-2-yl)but-2-enamide] | ≤ 10 nM | ≤ 10 nM |
| Cc1cccc(Oc2cc(Nc3cccc(NC(=O)/C=C/CN(C)C)n3)ncn2)c1 [I-81] | ≤ 10 nM | 10 to 100 nM |

Further lines, results first:

| IC50 (EGFR (WT)) | IC50 (ITK) | Compound |
| --- | --- | --- |
| ≤ 10 nM | – | C=CC(=O)Nc1cccc(Nc2cc(Nc3cccc(Br)c3)ncn2)c1 [I-1, N-{3-[6-(3-bromophenylamino)-pyrimidin-4-ylamino]-phenyl}-2-propenamide] |
| ≤ 10 nM | 1000 to 10000 nM | C=CC(=O)Nc1cccc(Nc2cc(Nc3ccc(Oc4ccccc4)cc3)ncn2)n1 [I-63] |
| ≤ 10 nM | 10 to 100 nM | C=CC(=O)Nc1cccc(Nc2cc(Oc3cccc(C)c3)ncn2)n1 [I-65] |
| ≤ 10 nM | 10 to 100 nM | C=CC(=O)Nc1cccc(Nc2cc(Nc3ccccc3)ncn2)n1 [I-94] |
